Test results as given in paper PMC11320734 (ACS Pharmacology & Translational Science, 2024).
≈ marks a conversion by molar mass, not a printed value. Where “and” joins values, the source holds several entries; their conditions need not be identical. Equal values may be shown once. Entries after “also recorded” stand apart in the source; their conditions may differ.

Experiments:
canine CB2R = canine CB2R (Canis lupus familiaris, UniProt E2RKA3); test: cAMP assay in CHO cells; type: cell-based; details: mean ± SD; read-out: EC50 cAMP assay, dog CB2R
Sequence of canine CB2R (E2RKA3 1-360): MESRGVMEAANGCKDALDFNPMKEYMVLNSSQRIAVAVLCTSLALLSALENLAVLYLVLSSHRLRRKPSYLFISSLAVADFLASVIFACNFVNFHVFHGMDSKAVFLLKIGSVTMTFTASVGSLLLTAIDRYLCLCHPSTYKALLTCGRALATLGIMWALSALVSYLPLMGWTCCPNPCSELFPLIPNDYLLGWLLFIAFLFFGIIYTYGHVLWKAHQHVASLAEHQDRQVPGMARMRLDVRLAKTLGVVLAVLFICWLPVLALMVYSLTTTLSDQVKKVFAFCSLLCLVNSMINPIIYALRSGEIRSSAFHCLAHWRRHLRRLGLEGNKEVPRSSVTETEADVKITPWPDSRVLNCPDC

hCB1R [1] = biological target: T1, hCB1R (Homo sapiens, UniProt P21554); test: cell-based; details: Table 1; mean ± SD; read-out: EC50 hCB1R (cAMP assay)
T1 sequence (P21554 whole entry): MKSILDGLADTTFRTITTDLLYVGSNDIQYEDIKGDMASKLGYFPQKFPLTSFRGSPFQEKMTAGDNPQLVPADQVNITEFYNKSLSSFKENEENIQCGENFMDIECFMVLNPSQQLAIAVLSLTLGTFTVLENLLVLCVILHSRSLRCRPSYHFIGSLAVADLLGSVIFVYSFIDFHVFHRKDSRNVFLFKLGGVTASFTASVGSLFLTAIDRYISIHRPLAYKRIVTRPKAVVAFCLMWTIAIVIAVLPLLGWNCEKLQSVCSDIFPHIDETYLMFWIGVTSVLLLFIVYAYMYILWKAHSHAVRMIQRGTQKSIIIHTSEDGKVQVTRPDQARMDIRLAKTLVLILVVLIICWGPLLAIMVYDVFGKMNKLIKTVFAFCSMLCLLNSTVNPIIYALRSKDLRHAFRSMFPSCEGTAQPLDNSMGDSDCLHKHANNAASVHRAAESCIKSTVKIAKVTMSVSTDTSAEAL

Microsomal clearance = type: in vitro ADME; details: rat, rat microsomes
human wild type CB2R [2] = biological target: T2, human wild type CB2R (Homo sapiens, UniProt P34972); test: cAMP assay in CHO cells; type: cell-based; design: expressed in transfected cells; host or cells: CHO cells
T2 sequence (P34972 whole entry): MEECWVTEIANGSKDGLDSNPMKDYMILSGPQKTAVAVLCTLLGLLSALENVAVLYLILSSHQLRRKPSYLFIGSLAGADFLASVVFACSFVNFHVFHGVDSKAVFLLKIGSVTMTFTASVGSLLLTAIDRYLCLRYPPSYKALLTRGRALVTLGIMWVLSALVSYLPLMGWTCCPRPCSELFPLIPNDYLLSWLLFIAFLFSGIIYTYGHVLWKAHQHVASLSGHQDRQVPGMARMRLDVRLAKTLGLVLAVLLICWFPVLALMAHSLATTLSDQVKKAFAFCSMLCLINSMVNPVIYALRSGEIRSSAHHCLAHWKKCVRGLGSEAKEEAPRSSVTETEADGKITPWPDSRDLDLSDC

GPR55 = GPR55 (Homo sapiens, UniProt Q9Y2T6); test: Endocannabinoid target profiling: GPR55; details: Table S1; read-out: GPR55 (Ki, IC50)
Sequence of GPR55 (Q9Y2T6 whole entry, species assumed): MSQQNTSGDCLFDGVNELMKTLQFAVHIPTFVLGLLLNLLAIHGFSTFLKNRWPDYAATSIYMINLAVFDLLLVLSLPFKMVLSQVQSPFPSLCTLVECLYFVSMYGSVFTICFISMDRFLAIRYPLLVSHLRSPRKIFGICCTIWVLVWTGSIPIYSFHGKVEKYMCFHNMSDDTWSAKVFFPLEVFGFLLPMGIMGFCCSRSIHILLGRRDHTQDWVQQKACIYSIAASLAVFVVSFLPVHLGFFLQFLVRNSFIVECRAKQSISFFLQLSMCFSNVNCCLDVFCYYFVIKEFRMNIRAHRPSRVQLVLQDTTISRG

[3] = system: endocannabinoid membrane transporter (EMT); test: Endocannabinoid target profiling: cellular AEA uptake; type: cell-based
human wild type CB2R [4] = biological target: T2, human wild type CB2R; test: [35S]GTPγS binding assay (G-protein activation); type: biochemical; design: host or cells: CHO cells (Pathhunter)
GSH adduct formation = type: in vitro ADME, human
Procedure: Cytochrome P450 (CYP) assays were conducted as previously described.[41] In brief, RNB-61 was incubated at a range of concentrations with the following components: pooled human liver microsomes, CYP probe substrate around the reported Km, and NADPH with a final concentration: 1 mM in 100 mM sodium phosphate buffer (pH 7.4). The conditions were optimized for a linear metabolic rate for the probe substrate reactions. The analysis of the samples was carried out by LC-MS/MS. The assays generated two endpoints: IC50 (μM) and percent inhibition at the highest acceptable test concentration (typically 50 μM; lower if the highest concentration data are rejected due to insolubility). […] (GSH) adduct formation data was assessed as reported in a previous study.[42] Briefly, RNB-61 was incubated with human liver microsomes to form reactive metabolites, and glutathione was added as a nucleophile to convert the reactive metabolites into stable conjugates that could be analyzed by MS.

hCB1R [5] = biological target: T1, hCB1R; test: Competition binding assay with [3H]-CP55940, HEK cell membranes; details: read-out: Ki hCB1R (binding assay); [3H]-CP55940 competition; mean ± SD
Procedure: Competition and saturation binding assays were performed using the radiolabeled CB1R/CB2R agonist [^3H]-CP55940 (PerkinElmer).
Binding reactions were terminated by vacuum filtration onto 0.5% polyethylenimine presoaked GF/B filter plates (Packard) using a Filtermate cell harvester followed by 6 brief washes with 0.3 mL/well of ice-cold wash buffer. Wash buffer comprising 50 mmol L^–1 Tris- HCl, 5 mmol L^–1 MgCl2, 2.5 mmol L^–1 EDTA, and 0.5% fatty acid-free BSA, pH 7.4. Plates were dried at 50 °C for 1 h and liquid scintillation counting was used to determine levels of bound radiolabel. IC50 values and Hill slopes were determined with a 4-parameter logistic model using ActivityBase (ID Business Solution, Guilford, UK) and pKi values were determined using the Cheng–Prusoff equation as shown below: [drawing 1] where S indicates the concentration of the substrate and Km depicts the affinity constant of the substrate.

human Q63R variant CB2R = biological target: T3, human Q63R variant CB2R (Homo sapiens, UniProt P34972, Q63R); test: cAMP assay in CHO cells; type: cell-based; details: mean ± SD
T3 construct: expressed in transfected cells; host or cells: CHO cells
T3 sequence (P34972 whole entry Q63R): as the sequence (P34972 whole entry) above, with Q63R counted along it

[6] = Lyophilization solubility assay (LYSA); type: physicochemical; details: aqueous buffer, thermodynamic from solid; kinetic, phosphate buffer pH 6.5
Procedure: For the determination of the octanol/water distribution coefficient (logD), the carrier-mediated distribution system (CAMDIS)-assay was used as described elsewhere.[38] Kinetic and thermodynamic solubilities were assessed using the lyophilization solubility assay (LYSA) and thermodynamic solubility assay (THESA), respectively. For the LYSA, the solubility of RNB- 61 in phosphate buffer at pH 6.5 from an evaporated 10 mM DMSO compound stock solution was measured. Two aliquots of the test compounds were dried and dissolved in phosphate buffer at pH 6.5. The solutions were then filtered and diluted (3 different dilution levels for each compound) before high throughput mass spectrometry (MS) analysis was performed in an Agilent RapidFire system. Each test compound was quantified using a 6-point calibration curve prepared with the same DMSO starting solution. For THESA, RNB-61 (8.6 mg per mL solvent/vehicle) was stirred in HPLC vials (9 × 12 × 32 mm, Waters) at 350 rpm for 15 h. The presence of solid particles was determined by microscopic analysis of 10 μL samples. If the active pharmacological ingredient (API) was completely dissolved, more solid API was added before stirring for another 15 h. This step was repeated for up to 96 h or until residual solid particles could be detected. […] The filtrates were diluted in ethanol and analyzed by ultra-performance liquid chromatography (UPLC). […]

human wild type CB2R [7] = biological target: T2, human wild type CB2R; test: β-arrestin2 recruitment assay (Pathhunter); type: cell-based; design: host or cells: CHO cells (Pathhunter)
[8] = expressed as percentage, compared with CP55,940

## Cn1c(C(C)(C)C)cc(=NC(=O)c2cc(C(F)(F)F)ccc2OCC(C)(C)O)n1CC1CCC1 [RNB-61]
Canine CB2R
  EC50: 1.86 ± 1.58 nM
hCB1R [1]
  EC50: > 10000 nM
Microsomal clearance; Table 1
  microsomal CLint: < 10 µL/min/mg
Microsomal clearance; Table 3
  microsomal CLint: ≤ 10 µL/min/mg
Human wild type CB2R [2]; CHO, percentage normalized to 1 μM CP55940, read-out: Emax cAMP inhibition
  Emax: 100%
Human wild type CB2R [2]; Table 1, mean ± SD, read-out: EC50 hCB2R (cAMP assay)
  EC50: 0.31 ± 0.07 nM
Human wild type CB2R [2]; percentage normalized to 1 μM CP55940, listed as RBN-61
  Emax cAMP inhibition: same efficacy (Emax) as CP55,940
GPR55
  IC50: > 50000 nM
[3]; Table S1, read-out: EMT (Ki, IC50)
  IC50: > 10000 nM
[3]; screening concentration 10 μM
  inhibition of cellular AEA uptake (EMT): did not inhibit
Human wild type CB2R [4]; Figure 2
  EC50: 0.33 nM and 1.65 nM
Human wild type CB2R [4]; [8]
  Emax: 100%
  Emax [35S]GTPγS binding: same efficacy (Emax) as CP55,940
GSH adduct formation
  GSH adducts (human liver microsomes): did not form any adducts; also recorded: no adducts detected
hCB1R [5]
  Ki: 3880 ± 73.4 nM
Human Q63R variant CB2R
  EC50: 0.29 ± 0.07 nM
[6]
  solubility: 194 µg/mL (≈ 403 µM)
Human wild type CB2R [7]; Figure 2, normalized to 1 μM CP55940
  EC50: 13.3 ± 1.9 nM
Human wild type CB2R [7]; percentage normalized to 1 μM CP55940, read-out: Emax β-arrestin2 recruitment
  Emax: 80%
Human wild type CB2R [7]; relative to CP55,940, text, read-out: Emax of total β-arrestin2 recruitment
  Emax: ~80%
